# Test results: ChEMBL document CHEMBL3046517, “Synthesis and antimicrobial study of fluoroquinolone-based 4-thiazolidinones” (2010)
# The source made the active and inactive calls. The rule behind the calls is not given here.
# What was measured:
# Format in all cases: functional
# Pseudomonas aeruginosa = assay: Antibacterial activity against Pseudomonas aeruginosa by broth dilution method
# Escherichia coli = assay: Antibacterial activity against Escherichia coli by broth dilution method
# Streptococcus pyogenes = assay: Antibacterial activity against Streptococcus pyogenes by broth dilution method
# Candida albicans = assay: Antifungal activity against Candida albicans by broth dilution method
# Aspergillus clavatus = assay: Antifungal activity against Aspergillus clavatus by broth dilution method
# Staphylococcus aureus = assay: Antibacterial activity against Staphylococcus aureus by broth dilution method
# Aspergillus niger = assay: Antifungal activity against Aspergillus niger by broth dilution method
Compound,MIC (Pseudomonas aeruginosa) [µg/mL],MIC (Escherichia coli) [µg/mL],MIC (Streptococcus pyogenes) [µg/mL],MIC (Candida albicans) [µg/mL],MIC (Aspergillus clavatus) [µg/mL],MIC (Staphylococcus aureus) [µg/mL],MIC (Aspergillus niger) [µg/mL],Activity (Pseudomonas aeruginosa),Activity (Escherichia coli),Activity (Streptococcus pyogenes),Activity (Candida albicans),Activity (Staphylococcus aureus)
COc1ccc(/C=N\NC(=O)c2cn(C3CC3)c3cc(N4CCN(c5ccc(OC)cc5)CC4)c(F)cc3c2=O)cc1,200,100,100,500,> 1000,500,> 1000,–,–,–,–,–
O=C(Cl)c1cn(C2CC2)c2cc(Cl)c(F)cc2c1=O,–,–,–,–,–,–,–,Active,Active,Active,Active,Active
NNC(=O)c1cn(C2CC2)c2cc(Cl)c(F)cc2c1=O,500,500,500,200,500,500,500,–,–,–,–,–
COc1ccc(N2CCN(c3cc4c(cc3F)c(=O)c(C(=O)N/N=C\c3ccc(Cl)cc3)cn4C3CC3)CC2)cc1,1000,1000,500,1000,1000,1000,1000,–,–,–,–,–
O=C(N/N=C\c1ccc(F)cc1)c1cn(C2CC2)c2cc(Cl)c(F)cc2c1=O,500,500,500,1000,1000,500,1000,–,–,–,–,–
O=C(N/N=C\c1ccc(O)cc1)c1cn(C2CC2)c2cc(Cl)c(F)cc2c1=O,500,500,500,500,500,500,500,–,–,–,–,–
O=C(N/N=C\c1ccccc1O)c1cn(C2CC2)c2cc(Cl)c(F)cc2c1=O,500,500,1000,500,500,500,500,–,–,–,–,–
COc1ccc(N2CCN(c3cc4c(cc3F)c(=O)c(C(=O)N/N=C\c3ccc(O)c(OC)c3)cn4C3CC3)CC2)cc1,200,150,500,1000,1000,500,1000,–,–,–,–,–
O=C(N[C@H](CO)[C@H](O)c1ccc([N+](=O)[O-])cc1)C(Cl)Cl [CHLORAMPHENICOL],50,50,50,–,–,50,–,–,–,–,–,–
COc1ccc(C2SCC(=O)N2NC(=O)c2cn(C3CC3)c3cc(N4CCN(c5ccc(OC)cc5)CC4)c(F)cc3c2=O)cc1 (stereo unspecified),500,500,1000,500,> 1000,1000,500,–,–,–,–,–
COc1ccc(N2CCN(c3cc4c(cc3F)c(=O)c(C(=O)N/N=C\c3ccc(O)cc3)cn4C3CC3)CC2)cc1,200,500,1000,1000,1000,500,1000,–,–,–,–,–
GENTAMICIN,1,0.05,0.5,–,–,0.25,–,–,–,–,–,–
O=C(N/N=C\c1ccc(Cl)cc1)c1cn(C2CC2)c2cc(Cl)c(F)cc2c1=O,1000,1000,1000,1000,500,1000,500,–,–,–,–,–
CC1(C)S[C@@H]2[C@H](NC(=O)[C@H](N)c3ccccc3)C(=O)N2[C@H]1C(=O)O [AMPICILLIN],100,100,100,–,–,250,–,–,–,–,–,–
COC1=CC(=O)C[C@@H](C)[C@]12Oc1c(Cl)c(OC)cc(OC)c1C2=O [GRISEOFULVIN],–,–,–,500,100,–,100,–,–,–,–,–
O=C(O)c1cn(C2CC2)c2cc(Cl)c(F)cc2c1=O,100,100,100,500,1000,100,1000,–,–,–,–,–

Compound,MIC (Pseudomonas aeruginosa) [µg/mL],MIC (Escherichia coli) [µg/mL],MIC (Streptococcus pyogenes) [µg/mL],MIC (Candida albicans) [µg/mL],MIC (Aspergillus clavatus) [µg/mL],MIC (Staphylococcus aureus) [µg/mL],MIC (Aspergillus niger) [µg/mL],Activity (Pseudomonas aeruginosa),Activity (Escherichia coli),Activity (Streptococcus pyogenes),Activity (Candida albicans),Activity (Staphylococcus aureus)
COc1ccc(N2CCN(c3cc4c(cc3F)c(=O)c(C(=O)NN3C(=O)CSC3c3ccccc3)cn4C3CC3)CC2)cc1 (stereo unspecified),200,1000,1000,1000,500,500,500,–,–,–,–,–
COc1ccc(N2CCN(c3cc4c(cc3F)c(=O)c(C(=O)N/N=C\c3ccccc3)cn4C3CC3)CC2)cc1,500,500,500,500,500,1000,500,–,–,–,–,–
O=C(N/N=C\c1ccccc1Cl)c1cn(C2CC2)c2cc(Cl)c(F)cc2c1=O,100,50,100,1000,500,200,500,–,–,–,–,–
COc1ccc(N2CCN(c3cc4c(cc3F)c(=O)c(C(=O)NN3C(=O)CSC3c3ccccc3[N+](=O)[O-])cn4C3CC3)CC2)cc1 (stereo unspecified),100,500,500,1000,1000,200,1000,–,–,–,–,–
COc1cc(/C=N\NC(=O)c2cn(C3CC3)c3cc(Cl)c(F)cc3c2=O)ccc1O,200,100,500,100,1000,200,500,–,–,–,–,–
COc1ccc(N2CCN(c3cc4c(cc3F)c(=O)c(C(=O)NN3C(=O)CSC3c3ccccc3Cl)cn4C3CC3)CC2)cc1 (stereo unspecified),500,1000,100,1000,1000,500,> 1000,–,–,–,–,–
COc1ccc(N2CCN(c3cc4c(cc3F)c(=O)c(C(=O)N/N=C\c3ccccc3O)cn4C3CC3)CC2)cc1,500,500,500,500,> 1000,500,500,–,–,–,–,–
O=C(O)c1cn(C2CC2)c2cc(N3CCNCC3)c(F)cc2c1=O [CIPROFLOXACIN],–,25,50,–,–,50,–,–,–,–,–,–
COc1ccc(N2CCN(c3cc4c(cc3F)c(=O)c(C(=O)NN3C(=O)CSC3c3ccc(F)cc3)cn4C3CC3)CC2)cc1 (stereo unspecified),500,1000,1000,1000,1000,1000,1000,–,–,–,–,–
COc1ccc(N2CCN(c3cc4c(cc3F)c(=O)c(C(=O)NN3C(=O)CSC3c3ccc(O)cc3)cn4C3CC3)CC2)cc1 (stereo unspecified),500,500,500,1000,> 1000,500,1000,–,–,–,–,–
COc1ccc(N2CCN(c3cc4c(cc3F)c(=O)c(C(=O)N/N=C\c3cccc([N+](=O)[O-])c3)cn4C3CC3)CC2)cc1,500,1000,500,1000,1000,1000,1000,–,–,–,–,–
COc1ccc(N2CCN(c3cc4c(cc3F)c(=O)c(C(=O)NN3C(=O)CSC3c3ccc(O)c(OC)c3)cn4C3CC3)CC2)cc1 (stereo unspecified),1000,1000,1000,500,1000,1000,> 1000,–,–,–,–,–
NYSTATIN,–,–,–,100,100,–,100,–,–,–,–,–
COc1ccc(N2CCN(c3cc4c(cc3F)c(=O)c(C(=O)N/N=C\c3ccccc3Cl)cn4C3CC3)CC2)cc1,100,100,100,500,> 1000,500,> 1000,–,–,–,–,–
CCn1cc(C(=O)O)c(=O)c2cc(F)c(N3CCNCC3)cc21 [NORFLOXACIN],10,10,10,–,–,10,–,–,–,–,–,–
